Laboratory results taken from patent publication US3966745A, “Vinvamine series cycloalkyl-alkyl esters” (Synthelabo, priority 1973, dated 1976).

Legend:
[1] = Acute toxicity (LD50, mice, intraperitoneal); settings: mouse, in vivo, ip; intraperitoneal administration; Swiss mice of both sexes; method of Miller and Tainter
Procedure: The tests were carried out on mice of the Swiss strain of both sexes, each weighing 20 g on average. The LD50 's were calculated in accordance with the method of Miller and Tainter (Proc. Soc. exp. Biol. Med., 1944, 57, 261).

[2] = system: mice; test: Hypobaric anoxia in mice (survival time); type: in vivo, male mice of the Swiss strain; settings: for ED (100% increase in survival time): Mus musculus, ip, intraperitoneal administration, dose which increases survival time by 100%, residual pressure 19 cm of Hg, read-out: MAD (mean active dose), absolute value; for therapeutic index relative to that of vincamine (times more favourable): from LD50 and MAD, mice, intraperitoneal, versus vincamine
Text: The mice are kept in an atmosphere which is depleted in oxygen by creating a partial vacuum. The degree of anoxia was chosen after preliminary tests. The survival time of the control and treated animals is noted.
The chamber into which the animals are introduced is a chemical desiccator, divided into 7 compartments. Calcium oxide is placed in this chamber in order to absorb the expired carbon dioxide. This desicator is connected to a vacuum pump and to a manometer to measure the residual pressure.
The injections are carried out using a volume of 0.5 ml per 20 g of body weight.
7 animals are introduced at the same time into the chamber, i.e. 1 control mouse (treated with physiological serum), 3 mice each treated with a different dose of a reference substance, and three mice each treated with a different dose of a test substance.
The chamber is then evacuated until the residual pressure therein is 19 cm of Hg (this is achieved in approximately 30 seconds).
The survival time i.e. the time until the animals stop breathing of each of the animals is then recorded. […] The percentage increases are calculated from values obtained for each batch of animals.
The reference substance was vincamine.

Row | Compound | LD50 [1] | ED (100% increase in survival time) [2] | therapeutic index relative to that of vincamine (times more favourable) [2]
1 | CCC12C=C(C(=O)OCC3CC3)n3c4c(c5ccccc53)CCN(CCC1)C42 (stereo not shown) [SL 73-005, Cyclopropylmethyl apovincaminate] | 380 mg/kg | 6 mg/kg | 2.5 times
2 | CC[C@]12CCCN3CCc4c(n(c5ccccc45)[C@@](O)(C(=O)OC)C1)[C@@H]32 [Vincamine, vincamine, reference compound] | 215 mg/kg | 8 mg/kg | –
3 | CCC12CCCN3CCc4c(n(c5ccccc45)C(O)(C(=O)OCC4CC4)C1)C32 (stereo not shown) [SL 72-401, Cyclopropylmethyl vincaminate] | 220 mg/kg | 11 mg/kg | –
4 | CCC12CCCN3CCc4c(n(c5ccccc45)C(C(=O)OCC4CC4)C1)C32 (stereo not shown) [SL 73-041, Cyclopropylmethyl desoxyvincaminate] | 260 mg/kg | 6 mg/kg | 1.6 times
